Reference: BindingDB's records for doi:10.1021/jm051056c (Targegen, 2007)

Molecular target: Phosphatidylinositol 4,5-bisphosphate 3-kinase catalytic subunit gamma isoform (Homo sapiens, UniProt P48736)
Assay: Determination of PI3K Activity
Conditions: pH 7.4; 22 °C

Chain of Phosphatidylinositol 4,5-bisphosphate 3-kinase catalytic subunit gamma isoform (P48736 whole entry, canonical isoform): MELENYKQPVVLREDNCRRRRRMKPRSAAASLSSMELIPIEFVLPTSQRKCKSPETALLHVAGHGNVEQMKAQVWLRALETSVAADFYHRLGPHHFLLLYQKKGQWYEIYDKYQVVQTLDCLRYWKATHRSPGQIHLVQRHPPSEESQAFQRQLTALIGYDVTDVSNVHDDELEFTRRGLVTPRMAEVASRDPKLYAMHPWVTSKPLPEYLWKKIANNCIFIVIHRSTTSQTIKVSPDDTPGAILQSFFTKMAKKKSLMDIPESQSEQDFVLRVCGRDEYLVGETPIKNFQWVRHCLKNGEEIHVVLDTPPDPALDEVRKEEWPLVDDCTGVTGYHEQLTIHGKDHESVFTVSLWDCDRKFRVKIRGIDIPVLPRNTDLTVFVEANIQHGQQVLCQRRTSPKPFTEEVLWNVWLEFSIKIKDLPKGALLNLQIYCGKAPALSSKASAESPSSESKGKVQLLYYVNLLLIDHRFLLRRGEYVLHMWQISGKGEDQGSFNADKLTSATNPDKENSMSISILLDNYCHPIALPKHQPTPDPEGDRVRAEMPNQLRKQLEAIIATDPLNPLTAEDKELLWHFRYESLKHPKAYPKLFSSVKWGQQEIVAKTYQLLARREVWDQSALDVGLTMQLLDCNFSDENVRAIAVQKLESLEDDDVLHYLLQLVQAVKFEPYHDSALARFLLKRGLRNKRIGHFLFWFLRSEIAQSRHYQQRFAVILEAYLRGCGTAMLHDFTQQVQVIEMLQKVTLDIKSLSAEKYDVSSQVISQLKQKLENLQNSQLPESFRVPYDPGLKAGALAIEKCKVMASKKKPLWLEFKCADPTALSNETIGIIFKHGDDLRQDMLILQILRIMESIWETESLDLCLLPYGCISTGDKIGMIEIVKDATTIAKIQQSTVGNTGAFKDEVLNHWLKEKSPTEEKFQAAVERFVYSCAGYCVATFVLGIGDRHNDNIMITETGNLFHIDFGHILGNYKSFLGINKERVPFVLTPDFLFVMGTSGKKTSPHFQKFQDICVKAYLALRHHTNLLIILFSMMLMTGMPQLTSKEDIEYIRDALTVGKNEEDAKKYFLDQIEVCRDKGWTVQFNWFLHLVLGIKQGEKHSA

- IC50: 12.6 µM
Compound: COc1cccc(-c2nc3nc(N)nc(N)c3nc2-c2cccc(OC)c2)c1 [6,7-bis(3-methoxyphenyl)pteridine-2,4-diamine]
